Each structure is given as a SMILES string. Where only a bound is given, the exact number is not on record here.

For one assay, the target named is T1, CRTH2 (KB8 cells) (Homo sapiens, UniProt Q9Y5Y4).
T1 construct: host or cells: KB8 cells (human CRTH2 expression cell)
T1 sequence (Q9Y5Y4 1-395): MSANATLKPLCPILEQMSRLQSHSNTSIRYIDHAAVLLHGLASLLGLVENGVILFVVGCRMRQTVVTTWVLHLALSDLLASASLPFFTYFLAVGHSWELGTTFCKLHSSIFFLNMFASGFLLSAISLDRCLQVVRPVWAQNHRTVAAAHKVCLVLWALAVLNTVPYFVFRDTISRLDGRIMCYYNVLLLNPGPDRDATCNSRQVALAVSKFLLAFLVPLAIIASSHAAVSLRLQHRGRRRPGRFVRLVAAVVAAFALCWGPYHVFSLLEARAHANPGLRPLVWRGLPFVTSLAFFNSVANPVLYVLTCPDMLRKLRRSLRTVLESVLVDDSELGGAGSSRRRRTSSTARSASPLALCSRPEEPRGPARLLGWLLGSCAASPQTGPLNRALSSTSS
Put plainly: CRTH2 antagonist test (PGD2-induced intracellular calcium ion concentration increase in KB8 cells). It is filed as cell-based. As to conditions: PGD2 100 nM, Fluo-4 calcium fluorescence, read-out: CRTH2 antagonist activity IC50 value. Put shortly: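 Fluo-4-AM-loaded KB8 cells in HBSS with 10 mM HEPES and 1 mM CaCl2 received compound plus PGD2 (final 100 nM); peak fluorescence followed over time. Inhibition was computed against no-compound and unlabelled-PGD2 controls, and IC50 obtained from a dose-response curve.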
On the technique in general: A change in cytosolic calcium serves as a functional read-out for many receptors and channels.
Take `O=C(O)Cc1cnc(Cc2ccc(C(=O)NCCc3cc4cc(Cl)ccc4[nH]3)cc2)c2ccccc12` [Example 234]: the IC50 turned out to be 0.0059 µM.
`O=C(O)Cc1cnc(Cc2ccc(C(=O)NCCC34CC5CC(CC(C5)C3)C4)cc2)c2ccccc12` [Example 240]: the IC50 amounted to 0.0066 µM.

Still in this assay, the particulars now being: PGD2 final concentration 100 nM, Fluo-4-AM fluorescence, read-out: antagonist activity (IC50 value, inhibition of calcium ion concentration increase).
In the case of `O=C(O)Cc1cnc(Cc2ccc(C(=O)NCCc3cc(Cl)cc(Cl)c3)cc2)c2ccccc12` [Example 219], the IC50 fell in the range of 0.05 to 0.5 µM.
On to `CNC(=O)c1ccc(Cc2ncc(CC(=O)O)c3ccccc23)cc1` [Example 220], for which the IC50 was not below 1 µM.
On the same count and under the same terms, for `O=C(O)Cc1cnc(Cc2ccc(C(=O)NCCc3ccc(Cl)c(F)c3)cc2)c2ccccc12` [Example 221] the value was less than 0.05 µM.
On the same count and under the same terms, the value for `O=C(O)Cc1cnc(Cc2ccc(C(=O)NCCc3cc(C(F)(F)F)cc(C(F)(F)F)c3)cc2)c2ccccc12` [Example 222] was less than 0.05 µM; that for `N#Cc1ccc(CCNC(=O)c2ccc(Cc3ncc(CC(=O)O)c4ccccc34)cc2)cc1` [Example 223] was 0.05 to 0.5 µM.
As to `O=C(O)Cc1cnc(Cc2ccc(C(=O)NCCc3cc(Cl)ccc3Cl)cc2)c2ccccc12` [Example 224], the IC50 is 0.05 to 0.5 µM.
Still for that read-out and setting: for `CC(C)Oc1ccc(CCNC(=O)c2ccc(Cc3ncc(CC(=O)O)c4ccccc34)cc2)cc1` [Example 225] the value was less than 0.05 µM; for `O=C(O)Cc1cnc(Cc2ccc(C(=O)NCCc3cccc(Cl)c3Cl)cc2)c2ccccc12` [Example 226], less than 0.05 µM; for `O=C(O)Cc1cnc(Cc2ccc(C(=O)NCCc3cn4ccccc4n3)cc2)c2ccccc12` [Example 227], not below 1 µM.
In the case of `O=C(O)Cc1cnc(Cc2ccc(C(=O)NCCc3cc(F)ccc3Cl)cc2)c2ccccc12` [Example 228], the IC50 is less than 0.05 µM.
Turning to `O=C(O)Cc1cnc(Cc2ccc(C(=O)NCCc3ccc(F)c(F)c3)cc2)c2ccccc12` [Example 229], the IC50 was less than 0.05 µM.
Same read-out and setting: the value for `O=C(O)Cc1cnc(Cc2ccc(C(=O)NCCc3csc4ccccc34)cc2)c2ccccc12` [Example 230] was less than 0.05 µM.
On the same count and under the same terms, the value for `Cc1cc(C)cc(CCNC(=O)c2ccc(Cc3ncc(CC(=O)O)c4ccccc34)cc2)c1` [Example 231] was less than 0.05 µM; that for `COc1ccc(CCNC(=O)c2ccc(Cc3ncc(CC(=O)O)c4ccccc34)cc2)cc1F` [Example 232] was less than 0.05 µM.
The same measure, in the same setting: the value for `O=C(O)Cc1cnc(Cc2ccc(C(=O)NCCc3ccc(F)cc3Cl)cc2)c2ccccc12` [Example 233] was less than 0.05 µM; that for `O=C(O)Cc1cnc(Cc2ccc(C(=O)NCCc3cc4cc(Cl)ccc4[nH]3)cc2)c2ccccc12` [Example 234] was less than 0.05 µM.
As for `O=C(O)Cc1cnc(Cc2ccc(C(=O)NCCc3cc4cc(F)ccc4[nH]3)cc2)c2ccccc12` [Example 235], the IC50 is less than 0.05 µM.
As to `COc1ccc2[nH]c(CCNC(=O)c3ccc(Cc4ncc(CC(=O)O)c5ccccc45)cc3)cc2c1` [Example 236], the IC50 is less than 0.05 µM.
On to `O=C(O)Cc1cnc(Cc2ccc(C(=O)NCCc3ccc(C4CCCCC4)cc3)cc2)c2ccccc12` [Example 237], for which the IC50 was less than 0.05 µM.
Still for that read-out and setting: for `CCCCCCc1ccc(CCNC(=O)c2ccc(Cc3ncc(CC(=O)O)c4ccccc34)cc2)cc1` [Example 238] the value was less than 0.05 µM; for `O=C(O)Cc1cnc(Cc2ccc(C(=O)NCCC3CC3)cc2)c2ccccc12` [Example 239], 0.05 to 0.5 µM.
As for `O=C(O)Cc1cnc(Cc2ccc(C(=O)NCCC34CC5CC(CC(C5)C3)C4)cc2)c2ccccc12` [Example 240], the IC50 was less than 0.05 µM.
As for `CCCOc1ccc(CCNC(=O)c2ccc(Cc3ncc(CC(=O)O)c4ccccc34)cc2)cc1` [Example 241], the IC50 is less than 0.05 µM.
The same measure, in the same setting: the value for `Cc1ccc2sc(CCNC(=O)c3ccc(Cc4ncc(CC(=O)O)c5ccccc45)cc3)cc2c1` [Example 242] was less than 0.05 µM; that for `O=C(O)Cc1cnc(Cc2ccc(C(=O)NCCc3ccccc3Oc3ccccc3)cc2)c2ccccc12` [Example 243] was less than 0.05 µM.
As for `O=C(O)Cc1cnc(Cc2ccc(C(=O)NCCc3cccc(Cl)c3F)cc2)c2ccccc12` [Example 244], the IC50 was less than 0.05 µM.
For `Cc1cc(CCNC(=O)c2ccc(Cc3ncc(CC(=O)O)c4ccccc34)cc2)ccc1Cl` [Example 245], the IC50 is less than 0.05 µM.
In the case of `O=C(O)Cc1cnc(Cc2ccc(C(=O)NCC3(c4ccc(Cl)cc4)CC3)cc2)c2ccccc12` [Example 246], the IC50 lay within 0.05 to 0.5 µM.
On to `O=C(O)Cc1cnc(Cc2ccc(C(=O)NCCNC(=O)c3ccc(Cl)cc3)cc2)c2ccccc12` [Example 247], for which the IC50 lay within 0.05 to 0.5 µM.
The same measure, in the same setting: the value for `O=C(O)Cc1cnc(Cc2ccc(C(=O)NCCc3nc4ccccc4[nH]3)cc2)c2ccccc12` [Example 248] was 0.05 to 0.5 µM.
The same measure, in the same setting: for `O=C(O)Cc1cnc(Cc2ccc(C(=O)NCCc3cc4ccccc4o3)cc2)c2ccccc12` [Example 249] the value was less than 0.05 µM; for `O=C(O)Cc1cnc(Cc2ccc(C(=O)NCCc3nc4ccccc4s3)cc2)c2ccccc12` [Example 250], less than 0.05 µM; for `CC(C)(CNC(=O)c1ccc(Cc2ncc(CC(=O)O)c3ccccc23)cc1)c1ccc(Cl)cc1` [Example 251], 0.05 to 0.5 µM.
Take `O=C(O)Cc1cnc(Cc2ccccc2OCc2ccc(Cl)cc2)c2ccccc12` [Example 252, (1-{2-[(4-chlorobenzyl)oxy]benzyl}isoquinolin-4-yl)acetic acid]: the IC50 is not below 1 µM.
Take `O=C(O)Cc1cnc(Cc2ccc(C(=O)NCCc3ccc(Cl)cc3)cc2)c2ccc(F)cc12` [Example 253, [1-(4-{[2-(4-chlorophenyl)ethyl]carbamoyl}benzyl)-6-fluoroisoquinoline-4-yl]acetic acid]: the IC50 is less than 0.05 µM.
As to `CC(C(=O)O)c1cnc(Cc2ccc(C(=O)NCCc3ccc(Cl)cc3)cc2)c2ccccc12` (stereo not shown) [Example 254, 2-[1-(4-{[2-(4-chlorophenyl)ethyl]carbamoyl}benzyl)isoquinolin-4-yl]propanoic acid], the IC50 fell in the range of 0.5 to 1 µM.
As to `CC(C)(C(=O)O)c1cnc(C(=O)c2ccc(C(=O)NCCc3ccc(Cl)cc3)cc2)c2ccccc12` [Example 255, 2-{1-[(4-{[2-(4-chlorophenyl)ethyl]carbamoyl}phenyl)carbonyl]isoquinolin-4-yl}-2-methylpropanoic acid], the IC50 is not below 1 µM.
For `NC(=O)Cc1cnc(Cc2ccc(C(=O)NCCc3ccc(Cl)cc3)cc2)c2ccccc12` [Example 256, 4-{[4-(2-amino-2-oxoethyl)isoquinolin-1-yl]methyl}-N-[2-(4-chlorophenyl)ethyl]benzamide], the IC50 was not below 1 µM.
`O=C(NCCc1ccc(Cl)cc1)c1ccc(Cc2ncc(Cc3nnn[nH]3)c3ccccc23)cc1` [Example 257, N-[2-(4-chlorophenyl)ethyl]-4-{[4-(1H-tetrazol-5-ylmethyl)isoquinolin-1-yl]methyl}benzamide]: the IC50 was not below 1 µM.
For the molecule `O=C(Cc1cnc(Cc2ccc(C(=O)NCCc3ccc(Cl)cc3)cc2)c2ccccc12)NO` [Example 258, N-[2-(4-chlorophenyl)ethyl]-4-({4-[2-(hydroxyamino)-2-oxoethyl]isoquinolin-1-yl}methyl)benzamide], the IC50 was not below 1 µM.
The same measure, in the same setting: for `COc1cc2c(CC(=O)O)cnc(C(=O)c3ccc(C(=O)NCCc4ccc(Cl)cc4)cc3)c2cc1OC` [Example 259, {1-[(4-{[2-(4-chlorophenyl)ethyl]carbamoyl}phenyl)carbonyl]-6,7-dimethoxyisoquinolin-4-yl}acetic acid] the value was 0.05 to 0.5 µM; for `COc1ccc2c(C(=O)c3ccc(C(=O)NCCc4ccc(Cl)cc4)cc3)ncc(CC(=O)O)c2c1` [Example 260, {1-[(4-{[2-(4-chlorophenyl)ethyl]carbamoyl}phenyl)carbonyl]-6-methoxyisoquinolin-4-yl}acetic acid], 0.05 to 0.5 µM; for `O=C(O)Cc1cnc(Oc2ccc(C(=O)NCCc3ccc(Cl)cc3)cc2)c2ccccc12` [Example 261, [1-(4-{[2-(4-chlorophenyl)ethyl]carbamoyl}phenoxy)isoquinolin-4-yl]acetic acid], not below 1 µM.

Another assay concerns the target T2, human CRTH2 expression cell KB8 (Homo sapiens, UniProt Q9Y5Y4).
T2 construct: host or cells: KB8 cells (human CRTH2 expression cell)
T2 sequence (Q9Y5Y4 1-395): T1 sequence (Q9Y5Y4 1-395)
Put plainly: CRTH2 binding test (3H-PGD2 binding to KB8 cells). The settings on record: 3H-PGD2 5 nM, 4° C., one hour, IC50 class, read-out: binding inhibitory activity. The method, then: CRTH2 binding inhibitory activity of the compound of the present invention was considered by using a binding test between human CRTH2 expression cell KB8 (BML, INC.) and ^3H-labeled prostaglandin D2 (hereinafter, abbreviated as ^3H-PGD2, manufactured by GE Healthcare).
KB8 was suspended in a reaction buffer solution (Hank's balanced salt solution (Invitrogen) containing 10 mM HEPES (Invitrogen)), which was dispensed in a 96 well plate (Coaster) so that 2×10^5 cells/well are placed. Furthermore, the compound of the present invention and ^3H-PGD2 (final concentration: 5 nM) were added, stirred, and incubated at 4° C.
One hour later, cells were collected on GF/C Filter Plate (PerkinElmer) that had been pre-coated with 0.5% polyethyleneimine solution (SIGMA) by using a Cell Harvester (Packard BioScience), and the radioactivity of the cells was measured by using Top count NXT (PerkinElmer) (a value measured herein was represented by a measurement value “a”). The same procedure was carried out in the absence of the compound, and a measurement value “b” was obtained; and the same procedure was carried out in the absence of the compound and in the presence of non-labeled PGD2 (final concentration: 50 μM), a measurement value “c” was obtained.
The binding inhibition rate of the compound was calculated by the following calculation formula: Bonding inhibitory rate(%)=[1−(a−c)/(b−c)]×100
That is to say, by using binding inhibition rates of compounds to be tested having various concentrations, the IC50 value was calculated according to a dose-dependent inhibition curve analyzed by using XLfit (IDBS) as a data analysis software, and the calculated value was defined as an indicator of the inhibitory activity. In Table 9, A denotes an inhibitory activity showing the IC50 value of less than 50 nM; B denotes an inhibitory activity showing the IC50 value of 50 nM or greater and less than 500 nM; C denotes an inhibitory activity showing the IC50 value of 500 nM or greater and less than 1000 nM; and D denotes an inhibitory activity showing the IC50 value of 1000 nM or greater.
Regarding `O=C(O)Cc1cnc(C(=O)c2ccc(NC(=O)c3ccccn3)cc2)c2ccccc12` [Example 16], the IC50 was less than 0.05 µM.

The values above are taken from US8461329B2, “Isoquinoline derivative” (Taisho Pharmaceutical Co., Ltd., priority 2008, dated 2013).
